We go through ten molecules from patent US8465808B2, “Process for depositing an organic acid on the surface of a metal composition” (Duquesne University of the Holy Spirit, priority 2005, dated 2013).

Data set [1] can be described thus: Static contact angle goniometry with water on modified SS316L. The following applies: SAM of the acid on SS316L; for Contact angle values: static, average of at least 3 samples, 6 readings each. It counts as physicochemical. Here is the method: Static contact angles were measured using VCA Optima Goniometry to determine the wettability of the surface. Measurements were made using the procedure described by Bain et al. (J. Am. Chem. Soc. 1989; Vol. 111, pgs. 321-335), known by those skilled in the art. About 1 μl drop of deionized water (purified with a Millipore Milli Q plus system) was formed at the end of the micro-liter syringe and brought into contact with the surface. Average contact angle value±standard deviation of 6 readings each on at least 3 samples have been reported.

For data set [2], the system named is 3T3 Swiss Albino embryo fibroblast cells. Briefly: Live/dead viability of cells on modified SS316L substrates. Particulars: 3T3 fibroblasts, 10,000 cells/well, 24 hours on SAM-modified SS316L. The data set is classed as cell-based. Here is the method:
For cell experiments, 3T3 Swiss Albino embryo fibroblast cells of mouse were obtained from ATCC (CCL-92). The cells were grown in Dulbecco's modified Eagle medium (DMEM, Invitrogen Corp.) supplemented with 10% calf serum, 1% penicillin/[…] antibiotic. The cells were passaged every 3 days and were discarded after 15 passages. Cells were removed from the T 75 flasks by trypsinization, washed once with DMEM, suspended in culture medium. The modified SS316L substrates were placed in a 24 well plate and were sterilized with 70% ethanol for 10 mins and then rinsed with sterile distilled water 3 times. The sterilized substrates were left in the hood to dry. The suspended 3T3 Swiss Albino embryo fibroblast cells were then counted with a Haemocytometer after staining them with trypan blue and seeded at the density of 10,000 cells/well into each of the wells containing the substrates modified with respective acids After incubating the cells in humidified air with 5% CO2 for 24 hours at 37° C., the samples were rinsed with PBS three times and analyzed for live dead cells. […] This calcein is retained in the live cells and produces a green fluorescence. Ethidium homodimer is excluded by the intact plasma membrane of live cells but enters cells with damaged membranes (dead cells), binds to nucleic acid and produces a bright red fluorescence. […]

For data set [3] the test system is unchanged. The data set can be described thus: Cell adhesion (number of cells attached) on modified SS316L substrates. The data set is classed as cell-based, mouse. Particulars: 3T3 cells, 24 hours, fluorescence microscopy. Here is the method: For cell experiments, 3T3 Swiss Albino embryo fibroblast cells of mouse were obtained from ATCC (CCL-92). The cells were grown in Dulbecco's modified Eagle medium (DMEM, Invitrogen Corp.) supplemented with 10% calf serum, 1% penicillin/[…] antibiotic. The cells were passaged every 3 days and were discarded after 15 passages. Cells were removed from the T 75 flasks by trypsinization, washed once with DMEM, suspended in culture medium. The modified SS316L substrates were placed in a 24 well plate and were sterilized with 70% ethanol for 10 mins and then rinsed with sterile distilled water 3 times. The sterilized substrates were left in the hood to dry. The suspended 3T3 Swiss Albino embryo fibroblast cells were then counted with a Haemocytometer after staining them with trypan blue and seeded at the density of 10,000 cells/well into each of the wells containing the substrates modified with respective acids After incubating the cells in humidified air with 5% CO2 for 24 hours at 37° C., the samples were rinsed with PBS three times and analyzed for live dead cells. Viability/cytotoxicity kit (L-3224) obtained from Molecular Probes was used to provide a simultaneous determination of live and dead cells. The assay contains Calcein AM and ethidium homodimer dyes. The live cells are identified by the enzymatic conversion of the non-fluorescent cell permeant calcein AM to intensely fluorescent calcein. This calcein is retained in the live cells and produces a green fluorescence. Ethidium homodimer is excluded by the intact plasma membrane of live cells but enters cells with damaged membranes (dead cells), binds to nucleic acid and produces a bright red fluorescence. Live cells are in green and dead cells in red when viewed under fluorescent microscope.
After washing with PBS, 0.5 ml of the live/dead stain was added to each well and the well plate was covered with aluminum foil and placed in the incubator for about 30 minutes. Three samples of each type of modification were used for every set and four such sets were performed. Each sample was mounted on the microscope slide and viewed under fluorescence Nikon Eclipse microscope at 10× magnification. Five different spots were observed and counted for cells on each sample and average value used for calculation of significance. Viability calculations were performed on each sample by counting the number of live cells in the total number of cells.
ANOVA was used to determine the statistical difference between the means of data sets for cell experiments with the modified substrates and multiple comparisons of the sample means was performed using Bonferroni post test using confidence level of 0.05.
In order to determine the stability of the interfacial systems developed in this work under physiological conditions and their viability for use in biomedical devices (and more specifically medically implantable devices), cell adhesion studies using fibroblasts were conducted on four sets of independent experiments with three samples each of all functionalized SAM with carboxylate and phosphonate head groups. The substrates were modified with —CH3, —COOH, —OH terminated phosphonic acids and —CH3, —OH, —COOH and —NH2 terminated carboxylic acids by the solution deposition process of the present invention as set forth herein. […] The samples were then rinsed with PBS three times and analyzed for live dead cells using the Viability/cytotoxicity kit. […]

For data set [4] the following is noted: cited from earlier work.

As to `O=C(O)CCCCCCCCCCCCCCCO` [C16OH—C, 16-hydroxyhexadecanoic acid], in data set [1], the “Contact angle compared with control SS316L substrate” value is “lower contact angle values than the control” and the Contact angle values worked out at 48.6°.

`CCCCCCCCCCCCCCCCCCP(=O)(O)O` [ODPA, octadecylphosphonic acid] had a Contact angle values in data set [1] of 108°. For the same molecule, the “Viability (live cells / total number of cells)” value in data set [2] is “about 92%”. For the same molecule, in data set [3], the “Number of cells attached to the modified SS316L (in words)” value (“Number of cells attached” for short) is “fewer cell attachments than ODCA”; the “Shape of the cells on the surface” value is “rounded and small”. Moreover, the “Number of cells attached” value in data set [3] (listed as methyl terminated phosphonic acid) is given as “the least in number”. Besides, the pKa result in data set [4] was “pka = 4”.

Regarding “12-aminododecanecarboxylic acid [C12NH2—C]”, the “Contact angle compared with control SS316L substrate” value in data set [1] is given as “lower contact angle values than the control”.

As for `CCCCCCCCCCCCCCCCCCS(=O)(=O)O` [Octadecyl sulfonic acid], in data set [4], the pKa result is recorded as “pKa = 2”.

As to `NCCCCCCCCCCCCC(=O)O` [C12NH2—C, 12-aminododecanecarboxylic acid], the Contact angle values in data set [1] turned out to be 38.4°. Moreover, the “Number of cells attached” value in data set [3] is on record as “close to that in the control”.

As for `O=P(O)(O)CCCCCCCCCCCO` [C11OH—P, 11-hydroxyundecanephosphonic acid], the Contact angle values in data set [1] was 59.8°. The “Viability (live cells / total number of cells)” value in data set [2] is listed as “about 92%”.

Consider `CCCCCCCCCCCCCCCCCC(=O)O` [Heptadecyl Carboxylic acid], for which the pKa result in data set [4] is on record as “pKa = 10”.

In the case of `CCCCCCCCCCCCCCCCCCC(=O)O` [ODCA, octadecylcarboxylic acid], the Contact angle values in data set [1] is 104.1°; in data set [1] (listed as Octadecylcarboxylic acid), 104 °. The “Shape of the cells on the surface” value in data set [3] was “rounded and small”. The pKa result in data set [4] is recorded as “pKa = 10”.

Regarding `O=C(O)CCCCCCCCCCCCP(=O)(O)O` [C12COOH—P, 12-carboxydodecanephosphonic acid], the Contact angle values in data set [1] turned out to be 52.3°.

For `O=C(O)CCCCCCCCCCCCC(=O)O` [C14COOH—C, 1,12-dodecanedicarboxylic acid], in data set [1], the “Contact angle compared with control SS316L substrate” value is reported as “lower contact angle values than the control” and the Contact angle values stood at 42°.
